Key:
[1] = test system: LTB4 synthesis in human whole blood; test: human whole blood (HWB) assay, inhibition of LTB4 production; type: cell-based; settings: heparinized human whole blood, calcimycin 20 μM stimulation, plasma LTB4
Method: The compounds of the invention are additionally tested in a human whole blood (HWB) assay to determine their ability to inhibit the synthesis of LTB4 in a cellular system. Compounds are combined with heparinized human whole blood and incubated for 15 minutes at 37° C. Calcimycin (20 μM final, prepared in phosphate-buffered saline, pH 7.4) is then added and the mixture is incubated for another 30 minutes at 37° C. The samples are centrifuged for 5 min at low speed (1500×g) and the plasma layer is removed. Plasma LTB4 concentrations are then measured using an antibody-based homogenous time-resolved fluorescence method (CisBio, Bedford, Mass.). In general, the preferred potency range (IC50) of compounds in the HWB assay is between 10 nM to 10 μM, the more preferred potency range is 10 nM to 1 μM, and the most preferred potency range is 10 nM to 100 nM.

human LTA4 hydrolase = target: T1, human LTA4 hydrolase (Homo sapiens, UniProt P09960); test: LTA4H Enzyme assay (peptidase, Arg-AMC cleavage); type: biochemical; settings: LTA4H enzyme 1 nM, Arg-AMC substrate 50 μM, room temperature 1 h, fluorescence 380/460 nm
T1 sequence (P09960 1-611): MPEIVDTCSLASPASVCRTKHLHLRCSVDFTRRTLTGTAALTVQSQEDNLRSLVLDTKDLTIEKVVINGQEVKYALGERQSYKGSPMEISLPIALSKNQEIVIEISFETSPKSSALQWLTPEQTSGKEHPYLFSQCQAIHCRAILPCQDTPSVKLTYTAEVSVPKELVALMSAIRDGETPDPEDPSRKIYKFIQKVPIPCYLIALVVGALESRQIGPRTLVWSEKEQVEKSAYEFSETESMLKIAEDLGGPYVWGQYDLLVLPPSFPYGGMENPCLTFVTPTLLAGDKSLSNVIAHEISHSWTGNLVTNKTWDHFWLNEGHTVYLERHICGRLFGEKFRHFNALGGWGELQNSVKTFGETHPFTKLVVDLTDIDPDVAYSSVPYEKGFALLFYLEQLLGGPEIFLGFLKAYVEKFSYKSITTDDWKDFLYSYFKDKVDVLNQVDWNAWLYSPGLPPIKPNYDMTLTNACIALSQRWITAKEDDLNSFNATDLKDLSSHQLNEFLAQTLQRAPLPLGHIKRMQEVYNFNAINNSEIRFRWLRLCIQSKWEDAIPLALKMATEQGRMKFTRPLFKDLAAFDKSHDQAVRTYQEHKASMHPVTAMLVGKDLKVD
Method: The compounds of the invention are assessed for the ability to interact with human LTA4 hydrolase in an enzymatic assay that measures the ability of the enzyme to cleave the peptide bond of arginyl-aminomethylcoumarin (Arg-AMC). LTA4H Enzyme (1 nM final), Arg-AMC substrate (50 μM final), and compound are combined in a reaction buffer (50 mM Tris-HCl (pH 7.5), 100 mM KCl, 0.5% bovine serum albumin) at room temperature for 1 h. The formation of product is assessed by measuring the fluorescence of aminomethylcoumarin product (excitation wavelength 380 nm/emission wavelength 460 nm). In general, the preferred potency range (IC50) of compounds in the LTA4H Enzyme assay is between 0.1 nM to 10 μM, the more preferred potency range is 0.1 nM to 0.1 μM, and the most preferred potency range is 0.1 nM to 10 nM.

`COCC(=O)N1CCN(Cc2ccc3cc(Oc4ccc(-c5ccn[nH]5)cn4)ccc3n2)CC1` [Example 28, 2-methoxy-1-(4-{6-[5-(2H-pyrazol-3-yl)-pyridin-2-yloxy]-quinolin-2-ylmethyl}-piperazin-1-yl)-ethanone] showed an IC50 [1] of 150 nM and an IC50 (human LTA4 hydrolase) of 0.87 nM.
`CCC(=O)N1CCN(Cc2ccc3cc(Oc4ccc(-c5ccn[nH]5)cn4)ccc3n2)CC1` [Example 29, 1-(4-{6-[5-(2H-Pyrazol-3-yl)-pyridin-2-yloxy]-quinolin-2-ylmethyl}-piperazin-1-yl)-propan-1-one] showed an IC50 [1] of 190 nM and an IC50 (human LTA4 hydrolase) of 0.66 nM.
For `O=C1CCC2(CCN(Cc3ccc4cc(Oc5ccc(-c6ccn[nH]6)cn5)ccc4n3)CC2)N1` [Example 30, 8-{6-[5-(2H-Pyrazol-3-yl)-pyridin-2-yloxy]-quinolin-2-ylmethyl}-1,8-diaza-spiro[4.5]decan-2-one], the IC50 [1] was 190 nM and the IC50 (human LTA4 hydrolase) was 1.1 nM.
In the case of `N#CCC(=O)N1CCN(Cc2ccc3cc(Oc4ccc(-c5ccn[nH]5)cn4)ccc3n2)CC1` [Example 31, 3-Oxa-3-(4-{6-[5-(2H-pyrazol-3-yl)-pyridin-2-yloxy]-quinolin-2-ylmethyl}-piperazin-1-yl)-propionitrile], the IC50 [1] is reported as 200 nM and the IC50 (human LTA4 hydrolase) is reported as 1 nM.
Compound `CC(=O)N1CC2CN(Cc3ccc4cc(Oc5ccc(-c6ccn[nH]6)cn5)ccc4n3)CC2C1` (centres unmarked) [Example 32, 1-(5-{6-[5-(2H-Pyrazol-3-yl)-pyridin-2-yloxy]-quinolin-2-ylmethyl}-hexahydro-pyrrolo[3,4-c]pyrrol-2-yl)-ethanone] has an IC50 [1] of 210 nM and an IC50 (human LTA4 hydrolase) of 0.85 nM.
With `CN(C(=O)CO)C1CCN(Cc2ccc3cc(Oc4ccc(-c5ccn[nH]5)cn4)ccc3n2)CC1` [Example 33, 2-Hydroxy-N-methyl-N-(1-{6-[5-(2H-pyrazol-3-yl)-pyridin-2-yloxy]-quinolin-2-ylmethyl}-piperidin-4-yl)-acetamide] the IC50 [1] was 230 nM and the IC50 (human LTA4 hydrolase) was 0.77 nM.
Work on `C[C@@H](NCc1ccc2cc(Oc3ccc(-c4ccn[nH]4)cn3)ccc2n1)C(N)=O` [Example 34, (R)-2-({6-[5-(2H-Pyrazol-3-yl)-pyridin-2-yloxy]-quinolin-2-ylmethyl}-amino)-propionamide] yielded an IC50 [1] of 800 nM and an IC50 (human LTA4 hydrolase) of 5.7 nM.
`NC(=O)[C@H]1[C@@H]2CN(Cc3ccc4cc(Oc5ccc(-c6ccn[nH]6)cn5)ccc4n3)C[C@@H]21` [Example 35, (1α,5α,6α)-3-{6-[5-(2H-Pyrazol-3-yl)-pyridin-2-yloxy]-quinolin-2-ylmethyl}-3-aza-bicyclo[3.1.0]hexane-6-carboxylic acid amide] was tested, and the IC50 [1] was 220 nM and the IC50 (human LTA4 hydrolase) was 0.49 nM.
For `CC(=O)N1CC(CN(C)Cc2ccc3cc(Oc4ccc(-c5ccn[nH]5)cn4)ccc3n2)C1` [Example 36, 1-{3-[(Methyl-{6-[5-(2H-pyrazol-3-yl)-pyridin-2-yloxy]-quinolin-2-ylmethyl}-amino)-methyl]-azetidin-1-yl}-ethanone], the IC50 [1] was 240 nM and the IC50 (human LTA4 hydrolase) was 0.98 nM.
`CC(=O)N(C)C1CCN(Cc2ccc3cc(Oc4ccc(-c5ccn[nH]5)cn4)ccc3n2)CC1` [Example 37, N-Methyl-N-(1-{6-[5-(2H-pyrazol-3-yl)-pyridin-2-yloxy]-quinolin-2-ylmethyl}-piperidin-4-yl)-acetamide] was tested, and the IC50 [1] was 270 nM and the IC50 (human LTA4 hydrolase) was 0.86 nM.
For `C[C@@H]1CN(C(=O)CO)CCN1Cc1ccc2cc(Oc3ccc(-c4ccn[nH]4)cn3)ccc2n1` [Example 38, 2-Hydroxy-1-((R)-3-methyl-4-{6-[5-(2H-pyrazol-3-yl)-pyridin-2-yloxy]-quinolin-2-ylmethyl}-piperazin-1-yl)-ethanone], the IC50 [1] was 280 nM and the IC50 (human LTA4 hydrolase) was 0.76 nM.
With `CS(=O)(=O)CC(=O)N1CCN(Cc2ccc3cc(Oc4ccc(-c5ccn[nH]5)cn4)ccc3n2)CC1` [Example 39, 2-Methanesulfonyl-1-(4-{6-[5-(2H-pyrazol-3-yl)-pyridin-2-yloxy]-quinolin-2-ylmethyl}-piperazin-1-yl)-ethanone] the IC50 [1] was 280 nM and the IC50 (human LTA4 hydrolase) was 2 nM.
Compound `CC(C)(O)CNC(=O)[C@H]1[C@@H]2CN(Cc3ccc4cc(Oc5ccc(-c6ccn[nH]6)cn5)ccc4n3)C[C@@H]21` [Example 40, (1α,5α,6α)-3-{6-[5-(2H-Pyrazol-3-yl)-pyridin-2-yloxy]-quinolin-2-ylmethyl}-3-aza-bicyclo[3.1.0]hexane-6-carboxylic acid (2-hydroxy-2-methyl-propyl)-amide] has an IC50 [1] of 300 nM and an IC50 (human LTA4 hydrolase) of 0.47 nM.
`CC(=O)NC[C@@H]1[C@H]2CN(Cc3ccc4cc(Oc5ccc(-c6ccn[nH]6)cn5)ccc4n3)C[C@@H]12` [Example 41, N-((1α,5α,6α)-3-{6-[5-(2H-Pyrazol-3-yl)-pyridin-2-yloxy]-quinolin-2-ylmethyl}-3-aza-bicyclo[3.1.0]hex-6-ylmethyl)-acetamide] was tested, and the IC50 [1] was 320 nM and the IC50 (human LTA4 hydrolase) was 0.99 nM.
Work on `CC(=O)N1CCN(Cc2ccc3cc(Oc4ccc(-c5ccn[nH]5)cn4)ccc3n2)[C@H](CO)C1` [Example 42, 1-((S)-3-Hydroxymethyl-4-{6-[5-(2H-pyrazol-3-yl)-pyridin-2-yloxy]-quinolin-2-ylmethyl}-piperazin-1-yl)-ethanone] yielded an IC50 [1] of 360 nM and an IC50 (human LTA4 hydrolase) of 0.88 nM.
Work on `NC(=O)N1CCN(Cc2ccc3cc(Oc4ccc(-c5ccn[nH]5)cn4)ccc3n2)CC1` [Example 43, 4-{6-[5-(2H-Pyrazol-3-yl)-pyridin-2-yloxy]-quinolin-2-ylmethyl}-piperazine-1-carboxylic acid amide] yielded an IC50 [1] of 380 nM and an IC50 (human LTA4 hydrolase) of 3.9 nM.
Compound `O=C(CO)N1C2CCC1CN(Cc1ccc3cc(Oc4ccc(-c5ccn[nH]5)cn4)ccc3n1)C2` [Example 44, 2-Hydroxy-1-(3-{6-[5-(2H-pyrazol-3-yl)-pyridin-2-yloxy]-quinolin-2-ylmethyl}-3,8-diaza-bicyclo[3.2.1]oct-8-yl)-ethanone] has an IC50 [1] of 410 nM and an IC50 (human LTA4 hydrolase) of 0.71 nM.
`O=C(CNCc1ccc2cc(Oc3ccc(-c4ccn[nH]4)cn3)ccc2n1)N1CCCC1` [Example 45, 2-({6-[5-(2H-Pyrazol-3-yl)-pyridin-2-yloxy]-quinolin-2-ylmethyl}-amino)-1-pyrrolidin-1-yl-ethanone] showed an IC50 [1] of 420 nM and an IC50 (human LTA4 hydrolase) of 2.8 nM.
`CC1(NC(=O)CO)CCN(Cc2ccc3cc(Oc4ccc(-c5ccn[nH]5)cn4)ccc3n2)CC1` [Example 46, 2-Hydroxy-N-(4-methyl-1-{6-[5-(2H-pyrazol-3-yl)-pyridin-2-yloxy]-quinolin-2-ylmethyl}-piperidin-4-yl)-acetamide] gave an IC50 [1] of 540 nM and an IC50 (human LTA4 hydrolase) of 1.6 nM.
In the case of `CN(CC(N)=O)Cc1ccc2cc(Oc3ccc(-c4ccn[nH]4)cn3)ccc2n1` [Example 47, 2-(Methyl-{6-[5-(2H-pyrazol-3-yl)-pyridin-2-yloxy]-quinolin-2-ylmethyl}-amino)-acetamide], the IC50 [1] is reported as 570 nM and the IC50 (human LTA4 hydrolase) is reported as 1.3 nM.
In the case of `c1cc(-c2ccc(Oc3ccc4nc(CN5CCCC6(COC6)C5)ccc4c3)nc2)[nH]n1` [Example 48, 2-(2-Oxa-6-aza-spiro[3.5]non-6-ylmethyl)-6-[5-(2H-pyrazol-3-yl)-pyridin-2-yloxy]-quinoline], the IC50 [1] is reported as 740 nM and the IC50 (human LTA4 hydrolase) is reported as 2.1 nM.
In the case of `O=C1NCC[C@@H]1NCc1ccc2cc(Oc3ccc(-c4ccn[nH]4)cn3)ccc2n1` [Example 49, (S)-3-({6-[5-(2H-Pyrazol-3-yl)-pyridin-2-yloxy]-quinolin-2-ylmethyl}-amino)-pyrrolidin-2-one], the IC50 [1] is reported as 860 nM and the IC50 (human LTA4 hydrolase) is reported as 8.9 nM.
Work on `O=C(CO)N1CCCC12CCN(Cc1ccc3cc(Oc4ccc(-c5ccn[nH]5)cn4)ccc3n1)CC2` [Example 50, 2-Hydroxy-1-(8-{6-[5-(2H-pyrazol-3-yl)-pyridin-2-yloxy]-quinolin-2-ylmethyl}-1,8-diaza-spiro[4.5]dec-1-yl)-ethanone] yielded an IC50 [1] of 1100 nM and an IC50 (human LTA4 hydrolase) of 2.8 nM.
In the case of `NC(=O)[C@@H](NCc1ccc2cc(Oc3ccc(-c4ccn[nH]4)cn3)ccc2n1)c1ccccc1` [Example 51, (S)-2-Phenyl-2-({6-[5-(2H-pyrazol-3-yl)-pyridin-2-yloxy]-quinolin-2-ylmethyl}-amino)-acetamide], the IC50 [1] is reported as 2200 nM and the IC50 (human LTA4 hydrolase) is reported as 8.1 nM.
For `c1cc(-c2ccc(Oc3ccc4[nH]c(CN5CCCC5)nc4c3)cc2)[nH]n1` [Example 52, 5-[4-(2H-Pyrazol-3-yl)-phenoxy]-2-pyrrolidin-1-ylmethyl-1H-benzoimidazole], the IC50 [1] was 66 nM and the IC50 (human LTA4 hydrolase) was 0.12 nM.
